Among the data in ChEMBL document CHEMBL4428109, “Structure-activity relationship studies of non-carboxylic acid peroxisome proliferator-activated receptor α/δ (PPARα/δ) dual agonists” (Bioorg Med Chem, 2016) are Emax, Activity and EC50 values, retold here.

For experiment [1], the target named is T1, Peroxisome proliferator-activated receptor delta (Homo sapiens) (UniProt Q03181).
T1 sequence (whole entry): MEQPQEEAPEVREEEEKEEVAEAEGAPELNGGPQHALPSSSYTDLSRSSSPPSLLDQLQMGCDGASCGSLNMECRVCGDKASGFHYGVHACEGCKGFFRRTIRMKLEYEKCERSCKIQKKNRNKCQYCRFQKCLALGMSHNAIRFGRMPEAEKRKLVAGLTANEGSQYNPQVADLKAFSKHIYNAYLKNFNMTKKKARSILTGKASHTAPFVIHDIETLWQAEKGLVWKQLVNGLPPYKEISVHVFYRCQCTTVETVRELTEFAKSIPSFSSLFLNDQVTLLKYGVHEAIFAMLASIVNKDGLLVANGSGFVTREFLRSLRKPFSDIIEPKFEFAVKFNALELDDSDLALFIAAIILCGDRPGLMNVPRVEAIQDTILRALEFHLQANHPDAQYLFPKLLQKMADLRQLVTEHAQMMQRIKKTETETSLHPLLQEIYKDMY
The experiment can be described thus: Agonist activity at N-terminal Gal4 fused human PPARdelta LBD transfected in HEK293 cells after 24 hrs by luciferase reporter gene assay relative to GW501516. Type of experiment: cell-based.

Experiment [2] has as its target T2, Retinoic acid receptor RXR-gamma (Homo sapiens) (UniProt P48443).
T2 sequence (whole entry): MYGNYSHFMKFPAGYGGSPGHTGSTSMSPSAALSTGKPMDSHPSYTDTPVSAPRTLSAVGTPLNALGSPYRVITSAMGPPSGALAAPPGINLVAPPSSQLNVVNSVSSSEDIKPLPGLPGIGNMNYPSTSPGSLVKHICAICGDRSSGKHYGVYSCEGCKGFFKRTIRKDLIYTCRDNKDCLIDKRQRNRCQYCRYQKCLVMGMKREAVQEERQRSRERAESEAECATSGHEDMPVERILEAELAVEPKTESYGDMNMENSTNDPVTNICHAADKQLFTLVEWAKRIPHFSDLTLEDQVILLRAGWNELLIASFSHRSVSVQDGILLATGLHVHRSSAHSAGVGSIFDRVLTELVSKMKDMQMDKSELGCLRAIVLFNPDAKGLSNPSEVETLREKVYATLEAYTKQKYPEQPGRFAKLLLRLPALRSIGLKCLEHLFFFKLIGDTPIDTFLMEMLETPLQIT
The experiment can be described thus: Agonist activity at RXRgamma (unknown origin) at < 20 uM.

In experiment [3] the target is T3, Peroxisome proliferator-activated receptor alpha (Homo sapiens) (UniProt Q07869).
T3 sequence (whole entry): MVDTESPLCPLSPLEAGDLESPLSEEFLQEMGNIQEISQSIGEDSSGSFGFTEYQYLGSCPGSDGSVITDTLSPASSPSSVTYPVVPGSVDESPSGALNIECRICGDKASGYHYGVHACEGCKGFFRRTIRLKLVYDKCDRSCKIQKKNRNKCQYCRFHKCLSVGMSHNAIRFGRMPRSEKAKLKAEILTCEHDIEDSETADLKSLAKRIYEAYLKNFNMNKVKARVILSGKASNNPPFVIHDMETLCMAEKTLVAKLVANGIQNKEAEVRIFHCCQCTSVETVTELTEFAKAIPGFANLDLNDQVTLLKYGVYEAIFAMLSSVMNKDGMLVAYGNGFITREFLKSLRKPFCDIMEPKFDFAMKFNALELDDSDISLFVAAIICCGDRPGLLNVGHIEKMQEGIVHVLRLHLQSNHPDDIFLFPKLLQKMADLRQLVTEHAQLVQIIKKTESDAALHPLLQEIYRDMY
The experiment can be described thus: Agonist activity at N-terminal Gal4 fused human PPARalpha LBD transfected in HEK293 cells after 24 hrs by luciferase reporter gene assay relative to GW7647. It is filed as cell-based. (In general: A reporter such as luciferase makes a cellular process visible.)

The target in experiment [4] is T4, Peroxisome proliferator-activated receptor delta (Homo sapiens, UniProt Q03181).
T4 sequence (Q03181 whole entry): T1 sequence (whole entry)
Kind of experiment: Agonist activity at N-terminal Gal4 fused human PPARdelta LBD transfected in HEK293 cells after 24 hrs by luciferase reporter gene assay. Type of experiment: cell-based.

Experiment [5] concerns the target T5, Bile acid receptor (Homo sapiens) (UniProt Q96RI1).
T5 sequence (whole entry): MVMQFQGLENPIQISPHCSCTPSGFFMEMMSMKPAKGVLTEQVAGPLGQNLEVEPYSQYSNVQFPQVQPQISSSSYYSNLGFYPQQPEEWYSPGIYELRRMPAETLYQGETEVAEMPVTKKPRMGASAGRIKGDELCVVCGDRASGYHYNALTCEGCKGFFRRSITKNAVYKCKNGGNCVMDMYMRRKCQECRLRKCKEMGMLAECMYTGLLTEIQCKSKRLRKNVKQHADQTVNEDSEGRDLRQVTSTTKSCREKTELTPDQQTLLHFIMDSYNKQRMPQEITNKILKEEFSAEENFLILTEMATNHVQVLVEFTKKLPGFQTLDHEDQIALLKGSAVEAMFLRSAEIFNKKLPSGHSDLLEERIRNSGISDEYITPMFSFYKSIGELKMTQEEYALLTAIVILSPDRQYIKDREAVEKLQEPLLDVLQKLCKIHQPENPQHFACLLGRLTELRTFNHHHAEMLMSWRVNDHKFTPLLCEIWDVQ
The experiment can be described thus: Agonist activity at FXR (unknown origin) at < 20 uM.

In experiment [6] the target is T6, Retinoic acid receptor RXR-beta (Homo sapiens) (UniProt P28702).
T6 sequence (whole entry): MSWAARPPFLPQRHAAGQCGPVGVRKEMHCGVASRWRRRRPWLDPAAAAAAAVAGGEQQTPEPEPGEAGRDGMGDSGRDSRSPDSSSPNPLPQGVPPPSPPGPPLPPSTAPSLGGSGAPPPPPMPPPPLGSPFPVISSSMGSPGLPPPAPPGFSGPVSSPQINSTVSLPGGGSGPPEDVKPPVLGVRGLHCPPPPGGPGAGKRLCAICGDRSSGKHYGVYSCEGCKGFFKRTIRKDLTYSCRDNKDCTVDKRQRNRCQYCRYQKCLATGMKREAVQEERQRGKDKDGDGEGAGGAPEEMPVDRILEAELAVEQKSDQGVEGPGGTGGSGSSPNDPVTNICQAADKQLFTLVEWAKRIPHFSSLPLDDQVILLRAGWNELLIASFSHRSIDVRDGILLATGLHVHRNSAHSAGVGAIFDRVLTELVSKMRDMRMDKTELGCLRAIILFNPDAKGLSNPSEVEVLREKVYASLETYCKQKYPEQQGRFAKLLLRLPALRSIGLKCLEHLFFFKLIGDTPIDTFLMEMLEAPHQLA
The experiment can be described thus: Agonist activity at RXRbeta (unknown origin) at < 20 uM.

Each structure is given as a SMILES string. Active and inactive are the calls of the source. The rule behind the calls is not given here.

As a reminder, the EC50 is the concentration needed to bring the measured effect to its halfway point. Read a low EC50 as greater potency. Regarding `CC(=O)NC(C)c1nc(-c2ccc(Oc3ccc(OCc4ccccc4)cc3)cc2)no1` (stereo unspecified), the Emax in experiment [1] was 5 to 10%; in experiment [3] it was 16 to 35%. Besides, the outcome in experiment [2], in experiment [5] and in experiment [6] was inactive. In experiment [4], this compound came in with an EC50 of 0.046 µM.
